From patent publication US20250326753A1, “DUAL CXCR4-BTK INHIBITORS” (X4 Pharmaceuticals, Inc., priority 2022, published 2025) come the findings set out here.

The target of the assay is T1, BTK (Bruton tyrosine kinase) (Homo sapiens, UniProt Q06187).
T1 construct: GST or His (the text leaves open which); purchased Reaction Biology Europe GmbH Lot 012,11; host or cells: Sf9 insect cells or E. coli (not resolved)
Briefly: BTK screening assay (33PanQinase Activity Assay, radiometric). In kind it is biochemical. The method, then:
Inhibition of BTK activity was evaluated using a radiometric protein kinase assay (33PanQinase® Activity Assay) to measure the activity of BTK (Bruton tyrosine kinase).
Kinase assays were performed in 96-well ScintiPlates™ from Perkin Elmer (Boston, MA, USA) in a 50 μL reaction volume. The reaction cocktail was pipetted in four steps in the following order: 10 μL of non-radioactive ATP solution (in H2O); 25 μL of assay buffer/[γ-^33P]-ATP mixture; 5 μL of compound test sample in 10% DMSO; 10 μL of enzyme/substrate mixture.
BTK kinase was expressed in Sf9 insect cells or in E. coli as recombinant GST-fusion proteins or His-tagged proteins, either as full-length or enzymatically active fragments from human cDNAs, and purified by either GSH-affinity chromatography or immobilized metal. Purity was examined by SDS-PAGE/Coomassie staining, and identity confirmed by mass spectroscopy.
The reaction cocktails were incubated at 30° C. for 60 minutes. The reaction was stopped with 50 μL of 2% (v/v) H3PO4, plates were aspirated and washed two times with 200 μL 0.9% (w/v) NaCl. Incorporation of ^33Pi (counting of “cpm”) was determined with a microplate scintillation counter (Microbeta, Wallac).
The median value of the counts in wells containing assay buffer without enzyme, and without test compound was defined as “low control.” This value reflects unspecific binding of radioactivity to the plate in the absence of a protein kinase but in the presence of the substrate. The median value of the counts in wells containing assay buffer without test compound was defined as the “high control,” i.e. full activity in the absence of any inhibitor. The difference between high and low control was taken as 100% activity. Residual activity (in %) was calculated using the following formula: Res. Activity (%)=100×[(cpm of compound-low control)/(high control-low control)].
The fitting method used was a least-squares fit.

Setting [1] is: Inhibition of BTK, radiometric 33PanQinase Activity Assay, 3 μM ATP, 10 concentrations in singlicate, top 10 μM, read-out: 33PanQinase ® Radiometric IC50.

Read-outs that look alike come from different tables or passages of the source.

By IC50 is commonly meant the concentration that gives 50% inhibition.

T1 sequence (Q06187 whole entry): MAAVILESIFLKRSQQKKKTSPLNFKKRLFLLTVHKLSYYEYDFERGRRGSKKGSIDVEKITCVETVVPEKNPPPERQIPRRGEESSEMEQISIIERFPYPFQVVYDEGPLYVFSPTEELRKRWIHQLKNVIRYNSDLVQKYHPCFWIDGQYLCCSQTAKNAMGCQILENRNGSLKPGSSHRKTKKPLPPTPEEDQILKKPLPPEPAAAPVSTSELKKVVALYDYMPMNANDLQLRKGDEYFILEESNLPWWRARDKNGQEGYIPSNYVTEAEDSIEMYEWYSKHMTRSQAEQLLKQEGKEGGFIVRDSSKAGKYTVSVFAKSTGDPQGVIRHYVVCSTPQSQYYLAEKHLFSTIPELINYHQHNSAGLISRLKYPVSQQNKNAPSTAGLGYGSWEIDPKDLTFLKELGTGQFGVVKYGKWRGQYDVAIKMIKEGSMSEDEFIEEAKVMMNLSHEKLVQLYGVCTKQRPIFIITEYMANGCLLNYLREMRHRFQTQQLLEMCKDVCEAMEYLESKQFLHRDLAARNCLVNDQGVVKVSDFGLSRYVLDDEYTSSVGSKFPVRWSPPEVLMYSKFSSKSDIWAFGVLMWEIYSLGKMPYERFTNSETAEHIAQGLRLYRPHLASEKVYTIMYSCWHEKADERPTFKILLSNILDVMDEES

Consider `Cc1cccnc1C1CCCCN1CCN1CCN(C(=O)c2ccc(-c3cc4c(-c5cccc(NC(=O)c6ccccc6)c5C)ncnc4[nH]3)cc2)CC1` (centres unmarked) [Compound I-73], for which the IC50 under setting [1] was in the range of 0.1 to 1 µM. Take `Cc1cccnc1[C@H]1CCC[C@@H](c2ncccc2C)N1CCNC(=O)c1cc2c(-c3cccc(NC(=O)c4ccccc4)c3C)ncnc2[nH]1` [Compound I-74]: the IC50 was > 2.5 µM. `Cc1cccnc1[C@H]1CCC[C@@H](c2ncccc2C)N1CCCNC(=O)c1cc2c(-c3cccc(NC(=O)c4ccccc4)c3C)ncnc2[nH]1` [Compound I-75]: under setting [1], the IC50 is > 2.5 µM. Still for that read-out and setting: the result for `Cc1cccnc1[C@H]1CCC[C@@H](c2ncccc2C)N1CCCCNC(=O)c1cc2c(-c3cccc(NC(=O)c4ccccc4)c3C)ncnc2[nH]1` [Compound I-76] reads > 2.5 µM. With `Cc1cccnc1[C@H]1CCC[C@@H](c2ncccc2C)N1CCNC1CN(C(=O)c2cc3c(-c4cccc(NC(=O)c5ccccc5)c4C)ncnc3[nH]2)C1` [Compound I-77], the IC50 under setting [1] was > 2.5 µM.

Regarding `Cc1cccnc1[C@H]1CCC[C@@H](c2ncccc2C)N1CCCNC1CN(C(=O)c2cc3c(-c4cccc(NC(=O)c5ccccc5)c4C)ncnc3[nH]2)C1` [Compound I-78], the IC50 under setting [1] is > 2.5 µM. On the same count and under the same terms, the result for `Cc1cccnc1[C@H]1CCC[C@@H](c2ncccc2C)N1CCCCNC1CN(C(=O)c2cc3c(-c4cccc(NC(=O)c5ccccc5)c4C)ncnc3[nH]2)C1` [Compound I-79] reads > 2.5 µM; that for `Cc1cc(-c2ncnc3[nH]c(C(=O)NCCN4[C@@H](c5ncccc5C)CCC[C@H]4c4ncccc4C)cc23)ccc1CNC(=O)c1ccc(F)cc1` [Compound I-80], 0.1 to 1 µM.

Consider `Cc1cc(-c2ncnc3[nH]c(C(=O)NCCN4[C@@H](c5ncccc5C)CCC[C@H]4c4ncccc4C)cc23)ccc1CNC(=O)c1cccc(F)c1` [Compound I-81], for which the IC50 under setting [1] was 0.1 to 1 µM.

Take `Cc1cc(-c2ncnc3[nH]c(C(=O)NCCCN4[C@@H](c5ncccc5C)CCC[C@H]4c4ncccc4C)cc23)ccc1CNC(=O)c1cccc(F)c1` [Compound I-82]: the IC50 under setting [1] was in the range of 0.1 to 1 µM. For the compound `Cc1cc(-c2ncnc3[nH]c(C(=O)NCCCCN4[C@@H](c5ncccc5C)CCC[C@H]4c4ncccc4C)cc23)ccc1CNC(=O)c1cccc(F)c1` [Compound I-83], the IC50 under setting [1] fell in the range of 0.1 to 1 µM. Same read-out and setting: with `Cc1cc(-c2ncnc3[nH]c(C(=O)NCCN4[C@@H](c5ncccc5C)CCC[C@H]4c4ncccc4C)cc23)ccc1CNC(=O)c1cc(F)cc(F)c1` [Compound I-84] the figure was 0.1 to 1 µM. On the same count and under the same terms, with `Cc1cc(-c2ncnc3[nH]c(C(=O)NCCCN4[C@@H](c5ncccc5C)CCC[C@H]4c4ncccc4C)cc23)ccc1CNC(=O)c1cc(F)cc(F)c1` [Compound I-85] the figure was 0.1 to 1 µM.

As for `Cc1cc(-c2ncnc3[nH]c(C(=O)NCCCCN4[C@@H](c5ncccc5C)CCC[C@H]4c4ncccc4C)cc23)ccc1CNC(=O)c1cc(F)cc(F)c1` [Compound I-86], the IC50 under setting [1] was 0.1 to 1 µM. Consider `Cc1cccnc1[C@H]1CCC[C@@H](c2ncccc2C)N1CCNC(=O)c1cc2c(-c3cccc(NC(=O)c4ccc(F)cc4)c3C)ncnc2[nH]1` [Compound I-87], for which the IC50 under setting [1] was > 2.5 µM. Consider `Cc1cccnc1[C@H]1CCC[C@@H](c2ncccc2C)N1CCCNC(=O)c1cc2c(-c3cccc(NC(=O)c4ccc(F)cc4)c3C)ncnc2[nH]1` [Compound I-88], for which the IC50 under setting [1] is > 2.5 µM. Still for that read-out and setting: the result for `Cc1cccnc1[C@H]1CCC[C@@H](c2ncccc2C)N1CCCCNC(=O)c1cc2c(-c3cccc(NC(=O)c4ccc(F)cc4)c3C)ncnc2[nH]1` [Compound I-89] reads > 2.5 µM. The same measure, in the same setting: the result for `Cc1cccnc1[C@H]1CCC[C@@H](c2ncccc2C)N1CCNC1CN(C(=O)c2cc3c(-c4cccc(NC(=O)c5ccc(F)cc5)c4C)ncnc3[nH]2)C1` [Compound I-90] reads > 2.5 µM; that for `Cc1cccnc1[C@H]1CCC[C@@H](c2ncccc2C)N1CCCNC1CN(C(=O)c2cc3c(-c4cccc(NC(=O)c5ccc(F)cc5)c4C)ncnc3[nH]2)C1` [Compound I-91], > 2.5 µM.

Take `Cc1cccnc1[C@H]1CCC[C@@H](c2ncccc2C)N1CCCCNC1CN(C(=O)c2cc3c(-c4cccc(NC(=O)c5ccc(F)cc5)c4C)ncnc3[nH]2)C1` [Compound I-92]: the half-inhibitory concentration (IC50) under setting [1] lay in the range of 1 to 2.5 µM.
